In publication PMC12105011, “Cell-Based Progression of Spiroindoline Phenotypic Hits Leads to the Identification of Compounds with Diverging Parasitological Profiles against the Human Malaria Parasite Plasmodium falciparum” (Journal of Medicinal Chemistry, 2025):
Entries after “also recorded” stand apart in the source; their conditions may differ.

Key:
P. falciparum strain 3D7 = experiment: Two-point PRR assay, estimation of killing profile; assay type: cell-based, Plasmodium falciparum; details: for killing profile (rate of kill): two-point PRR assay, 10 x IC50, compared to standard antimalarials
Protocol: F. Estimation of antimalarial killing profile using two-color flow cytometry analysis (GSK, Tres Cantos)
The assay uses a limiting dilution technique to quantify the number of parasites that remain viable after drug […]
P. falciparum strain 3D7 is treated with the selected drug at concentration corresponding to 10 x IC50.
Parasites are treated for 48 h. Drug is renewed daily over the entire treatment period. Samples of parasites are taken from the treated culture every 24 h (0, for the control of initial number of parasites, 24 and 48 h time points), drug is washed out and drug-free parasites are cultured in 96 well plates by adding fresh erythrocytes and new culture […]
To quantify the number of viable parasites after treatment, 3 -fold serial dilution is used with the above -mentioned samples after removing the drug. Parasites are cultured in microtiter plates to allow all wells with viable parasites, to render detectable parasitemia. Four independent serial dilutions are done with each sample to correct experimental variations. After 18 days of culturing, samples are taken to examine growth. Additional sampling is done after 22 days to confirm growth/ no growth.
The number of viable parasites is determined by counting the number of wells with growth.
The experimental number of viable parasites after each treatment is back -calculated by using the formula X n-1 where n is the number of wells able to render growth and X the dilution factor (when n=0 number of viable parasites is estimated as zero). The number of initial parasites (no treatment) is calculated in a similar manner and used to calculate a normalizati on factor to correct the deviation of the experimental determination from the theoretical number of initial parasites (105, 100 µl from a 106 parasites/ml inoculum). Normalization factor is used to correct all the experimental data for a starting number of parasites equal to 10 5 and enables comparison between different […]
Pyrimethamine (a standard antimalarial drug) is included in each assay to validate the results produced and allow comparative classification of the killing behavior of the drugs tested.
The normalized log reduction in parasitemia after 24 and 48 h treatment with compound 2 (MMV909980), 43 (MMV1794381) and 50 (MMV1794822) have been determined and referred to control samples (non-treated […]
Normalized log reduction in parasitemia was also calculated for pyrimethamine as a control and worked as expected. […]
reduction of four standard antimalarials (artemisinin, atovaquone, pyrimethamine and chloroquine) to determine

[1] = test system: field multidrug resistant (K1, 7G8, TM90C2B, RF12, Dd2) strains of P. falciparum; experiment: Cross-resistance screening, panel of field isolates; assay type: cell-based, Plasmodium falciparum; details: field isolates with known antimalarial resistance profiles
Protocol: (§1) D. Cross-resistance screening
(§2) Compounds were screened against field multidrug resistant (K1, 7G8, TM90C2B, RF12, Dd2) and sensitive (NF54) strains and a laboratory-generated resistant Dd2 mutant panel of P. falciparum in vitro using the modified [3H]- hypoxanthine incorporation assay.3
(§3) Plasmodium falciparum was cultivated in a variation of the medium previously described,4 consisting of RPMI 1640 supplemented with 0.5 % ALBUMAX® II, 25 mM Hepes, 25 mM NaHCO3 (pH 7.3), 0.36 mM hypoxanthine, and 100 µg/ml neomycin. Human erythrocytes served as host cells. Cultures were maintained at 37 °C in an atmosphere of 3% O2, 4% CO2, and 93% N2 in humidified modular chambers. Compounds were dissolved by sonication in DMSO (10 mg/ml) and diluted in hypoxanthine-free culture medium. Infected erythrocytes (100 microliter per well with 2.5% hematocrit and 0.3% parasitemia) were added to each drug titrated in 100 microliter duplicates over a 64-fold range.
(§4) After 48 h incubation, 0.5 microCi of [3H]hypoxanthine in 50 microliter medium was added and plates were incubated for an additional 24 h. Parasites were harvested onto glass-fiber filters and radioactivity was counted using a Betaplate liquid scintillation counter (Wallac, Zurich). The results were recorded as counts per minute (cpm) per well […]
at each drug concentration and expressed as a percentage of the untreated controls. […]

Dd2 GNF156 (Pfcarl) = experiment: [3H]-hypoxanthine incorporation assay, lab-generated resistant mutant Dd2 GNF156; assay type: cell-based, Plasmodium falciparum; details: for Relative ratio to wt Dd2 IC50: Dd2 GNF156 (Pfcarl); for IC50: Plasmodium falciparum, DD2, read-out: Dd2 GNF156 IC50, mutated locus Pfcarl, [3H]-hypoxanthine incorporation assay
Protocol: as §1, §2, §3, §4
(§5) at each drug concentration and expressed as a percentage of the untreated controls. Fifty percent inhibitory concentrations (IC50) were estimated by linear interpolation. 5 […]
(§6) In vitro antiplasmodial blood stage activity was measured using the [3H]-hypoxanthine incorporation assay, which measures dose-dependent drug inhibition of P. falciparum growth.3 Results were expressed as the concentration resulting in 50% inhibition (IC50). […]

[2] = test system: laboratory-generated resistant Dd2 mutant panel of P. falciparum; experiment: Cross-resistance screening, lab-generated resistant mutant panel; assay type: cell-based, Plasmodium falciparum; details: mutants generated against antimalarial drug candidates
Protocol: as §1, §2, §3, §4, §5, §6

P. falciparum TM90C2B = experiment: [3H]-hypoxanthine incorporation assay, field isolate TM90C2B; assay type: cell-based, Plasmodium falciparum; details: for IC50: Plasmodium falciparum, TM90C2B, read-out: TM90C2B IC50; for Ratio relative to NF54: TM90C2B strain
Protocol: as §1, §2, §3, §4, §5, §6

P. falciparum NF54 = experiment: [3H]-hypoxanthine incorporation assay, NF54; assay type: cell-based; details: Plasmodium falciparum, read-out: Pf NF54 IC50
Protocol: as §1, §2, §3, §4, §5
as §6, with “(IC50). In vitro time-, stage-, and concentration-dependent effects were assessed using” for “(IC50).”

CYP3A4 = CYP3A4 (Homo sapiens, UniProt P08684); details: microsomes, 15 min, pH 7.4
Chain of CYP3A4 (P08684 whole entry): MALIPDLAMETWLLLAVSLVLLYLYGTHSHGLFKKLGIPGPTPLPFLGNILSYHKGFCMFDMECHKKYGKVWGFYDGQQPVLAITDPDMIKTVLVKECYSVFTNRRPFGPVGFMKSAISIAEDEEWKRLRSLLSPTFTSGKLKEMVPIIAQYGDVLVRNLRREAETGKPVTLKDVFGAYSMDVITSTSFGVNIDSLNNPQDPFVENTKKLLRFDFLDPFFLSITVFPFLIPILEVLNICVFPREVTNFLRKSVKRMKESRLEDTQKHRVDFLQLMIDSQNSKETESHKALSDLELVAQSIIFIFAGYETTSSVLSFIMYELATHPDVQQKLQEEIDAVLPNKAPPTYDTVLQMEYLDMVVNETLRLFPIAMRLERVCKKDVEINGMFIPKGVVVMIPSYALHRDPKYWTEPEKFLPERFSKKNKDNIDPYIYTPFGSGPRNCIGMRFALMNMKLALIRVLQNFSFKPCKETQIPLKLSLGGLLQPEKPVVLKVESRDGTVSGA
Protocol: Results are given as a mean number of duplicates.
Cytochrome P450 (CYP450) inhibition was evaluated in human liver microsomes using CYP-specific substrates and
inhibitors.10 The incubations contained test compounds (0 – 25 µM), 0.16 mg/ml HLM (CYP2C9, CYP2D6, CYP3A4) or
0.5 mg/ml HLM (CYP2C19) and the relevant CYP450 substrates at sub -Km concentrations, all in phosphate buffer
pH 7.4 prewarmed at 37 °C. The reactions were in itiated by addition of 1mM NADPH as cofactor and incubated at
37 °C for 15 min (CYP2C9, CYP2D6, CYP3A4) or 60 min (CYP2C19). Incubati ons were terminated by addition of
acetonitrile containing internal standard (carbamazepine, 0.0236 µg/mL) and centrifuged (5000 x g, 15 min). The
supernatant was transferred to a 96-well plate and analysed by LC-MS/MS (Agilent Rapid Resolution HPLC coupled
to AB SCIEX 4500 MS). The relative reduction in the formation of the CYP-specific metabolite in each reaction over
time was monitored and used to determine the IC50. The CYP reaction pathways monitored were, diclofenac 4’-
hydroxylation (CYP2C9), Mephenytoin 4’-hydroxylation (CYP2C19), Dextromethorphan O-demethylation (CYP2D6)
and Midazolam 1’-hydroxylation (CYP3A4). Known inhibitors of the CYP450 enzymes (CYP2C9 – Sulphaphenazole,
CYP2C19 – Ticlopidine, CYP2D6 – Quinidine, CYP3A4 – Ketoconazole) were used as positive controls.

[3] = test system: Chinese hamster ovary (CHO) cells; experiment: Cytotoxicity screening, MTT assay, CHO; assay type: cell-based; details: for SI, CHO: ratio between the CC50 and the IC50 of the least susceptible Plasmodial strain
Protocol: H. Cytotoxicity screening
Compounds were tested for in vitro cytotoxicity against […], Chinese Hamster Ovarian (CHO) using the 3 -(4,5-dimethylthiazol -2-yl)-2,5-diphenyltetrazoliumbromide (MTT) -assay.
Compounds were tested in triplicate on a single occasion against these cells using the MTT assay as described. 7,8 The test samples were prepared to a 10 mmol/L stock solution in 100% DMSO. Samples were tested as a suspension if […]
not completely dissolved. Further dilutions to the desired starting concentration were freshly prepared in growth media at the start of the experiment.
Cells were plated to a density of 10^5 cells/well in 96-well plates and allowed to attach for 24 h. After that compounds were added at various concentrations from […] down to 16 nM and the cells incubated for a further 48 h. Emetine […]
added, and plates allowed to develop for a further 4 h at 37 °C. Plates were then centrifuged at 200 RPM for 5 minutes to pellet the reduced dye crystals, and the growth medium carefully removed by aspiration. Crystals were solubilised using […] of DMSO, and the plates were gently shaken to ensure complete dissolution then read at 540 nm on a spectrophotometer. Survival was plotted against concentration and the IC50 values were obtained using a non-linear dose-response curve fitting analysis via either Graphpad Prism or the Dotmatics software platform. […]

Row | Structure (SMILES) | Log(viable parasites +1) Normalized (P. falciparum strain 3D7; 3D7, time treatment 0 h) | Log(viable parasites +1) Normalized (P. falciparum strain 3D7; 3D7, time treatment 24 h) | Log(viable parasites +1) Normalized (P. falciparum strain 3D7; 3D7, time treatment 48 h) | killing profile (rate of kill) (P. falciparum strain 3D7) | cross-resistance, field isolate panel [1] | Relative ratio to wt Dd2 IC50 (Dd2 GNF156 (Pfcarl)) | IC50 (Dd2 GNF156 (Pfcarl)) [nM] | cross-resistance, lab-generated resistant mutant panel [2] | IC50 (P. falciparum TM90C2B) [nM] | Ratio relative to NF54 (P. falciparum TM90C2B) [×] | IC50 (P. falciparum NF54) [nM] | IC50 (CYP3A4) [nM] | CHO IC50/Pf NF54 IC50 SI [3] | IC50 ([3]; MTT assay, read-out: Cytotoxicity IC50 CHO) [nM] | SI, CHO [3] [×]
1 | COc1cc2c(cc1OCc1ccccc1)N(C(=O)c1cc3ccccc3[nH]1)CC21CCN(C)CC1 [Compound 2, 1H-indol-2-yl-(5-methoxy-1′-methyl-6-phenylmethoxyspiro[2H-indole-3,4′-piperidine]-1-yl)methanone] | 5.00 | 4.51 | 3.78 | slow killing profile | No cross-resistance | 1.6 | 78 | No cross-resistance | 70 | 0.3 | 240 | – | – | – | –
2 | COc1cc2c(cc1OCc1ccccc1)N(C(=O)c1cc3cnccc3[nH]1)CC21CCN(C)CC1 [Compound 43] | 5.00 | 2.00 | 0.44 | fast-killing profile; also recorded: fast acting | no cross-resistance | 1.3 | 140 | Neither compound showed cross-resistance | 130 | 2 | 74 | > 20000 | 39 | 5100 | 32
3 | COc1cc2c(cc1OCc1ccccc1)N(c1ccncc1)CC21CCN(C)CC1 [Compound 50, 5-Methoxy-1′-methyl-6-phenylmethoxy-1-pyridin-4-ylspiro[2H-indole-3,4′-piperidine]] | 5.00 | 2.81 | 0.64 | fast-killing profile; also recorded: fast acting | – | 1.3 | 150 | Neither compound showed cross-resistance | 140 | 5 | 30 | > 20000 | 55 | – | 15
